Assays:
[1] = Acute toxicity in the rat (oral); details: in vivo
Method: (§1) The test compounds shown in Table 2 were administered orally to male mice and rats in the form of a suspension in a 1% solution of sodium carboxymethyl cellulose. The LD50 (lethal dose 50%) was calculated by the method of Litchfield and Wilcoxon.

[2] = Potentiation of narcosis (hexobarbitone sodium) in the mouse, Winter method; format: in vivo; details: hexobarbitone sodium 80 mg/kg i.p., control 33.3
Method: The Winter method was used, in which a state of narcosis is induced by the intraperitoneal administration of 80 mg/kg of hexobarbitone sodium, and is assessed by the loss of the righting reflex in the test animal. […] orally to the animals, in doses shown in Table 4, as suspensions in 1% sodium carboxymethyl cellulose solution; and the prolongation of narcosis in the animals thus treated was observed, by comparison with controls which received only the hexobarbitone administration.

[3] = Spontaneous mobility (Svenson and Thieme); format: in vivo; details: for ED50: po, read-out: oral ED50 (depressing spontaneous mobility)
Method: Spontaneous mobility in test animals was determined by the Svenson and Thieme procedure as published in Psychopharmacologia, Vol. 14, 1969, pages 157 et seq.

[4] = Anti-convulsant activity in the mouse (convulsions induced by 1,5-pentamethylenetetrazole); format: in vivo; details: 30 min before pentamethylenetetrazole s.c.
Method: The inhibition of convulsions induced by 1,5-pentamethylenetetrazole was tested by the Clen method. The test compounds were administered orally to the mice, in the doses shown in Table 3, in the form of suspensions in 1% sodium carboxymethyl cellulose solution, and 30 minutes later the test animals were injected subcutaneously with […] of 1,5-pentamethylenetetrazole. The number of mice protected from lethal extensorial tonic spasms, per group of 10 test animals, was recorded.

[5] = Hypnotic activity comparison (Janssen 1959); format: in vivo
Method: Toxicity in test animals to the test compounds in terms of LD50 after oral and intraperitoneal administration was determined according to the procedure of Litchfield and Wilcoxan (1949) and the hypnotic effect on test animals was determined in accordance with the method of Janssen (1959).

[6] = Motor coordination in the rat (Rota-rod method, Dunham and Miya); format: in vivo
Method: The method of Dunham and Miya was used, which consists in placing the test animal on a rod rotating at 14 r.p.m., and recording the percentage of animals which fall off within 2 minutes. The test compound 1 was administered orally to the animals, in the various doses shown in Table 1, as a suspension in 1% sodium carboxymethyl cellulose solution. The animals were then tested 30 minutes and 60 minutes after the administration of the test compound.

[7] = Myorelaxant activity in the mouse (traction test); format: in vivo
Method: This was determined by the traction test of Joulon Courvoisier, following Boissier and Simon, in which the mouse is suspended by its front paws to a horizontal metal wire, and the animal's capacity to get up with its hind paws is observed. The test compounds were administered orally to the animals, in the doses shown in Table 5, as suspensions in 1% sodium carboxymethyl cellulose solution; and the animals were tested 30 minutes and 180 minutes after administration. The test animals were deemed to be myorelaxant if unable to get up within 5 seconds.

[8] = Conditioned emotional response (CER), tone paired with foot shock; format: in vivo
Method: Conditioned emotional response (CER) in test animals was conventionally determined by a tone paired with a foot shock which was presented to hungry animals trained to press a lever for intermittent food reinforcement. After a few such pairings, the presence of the tone alone was sufficient to disrupt the lever pressing behavior. CER is considered a model of behavior anxiety in animals. […] Thus, a 1.25 mg/kg os of compounds 1 and 4 respectively produced about a 350 and 630% increase in CER while a 5 mg/kg os of compounds 1 and 4 respectively produced about 920 and 1600% increase.

[9] = Acute toxicity in the mouse (oral); details: in vivo, mouse (male)
Method: as §1

SMILES: C#CCN1C(=O)CN=C(c2ccccc2)c2cc(Cl)ccc21 [Compound 1, 7-chloro-2,3-dihydro-5-phenyl-1-propargyl-1H-1,4-benzodiazepin-2-one]
- LD50 [1]: 6490 mg/kg
- Duration of narcosis ([2]; 1.0 mg/kg oral): 70.7 min
- Duration of narcosis ([2]; 2.0 mg/kg oral): 111.3 min
- activity in depressing spontaneous mobility compared with Compound 4 ([3]; in vivo): approximately three times less active than Compound 4
- ED50 [3]: 76.6 mg/kg
- No. of Animals Protected ([4]; 0.5 mg/kg oral): 0/10
- No. of Animals Protected ([4]; 1.0 mg/kg oral): 5/10
- No. of Animals Protected ([4]; 2.0 mg/kg oral): 9/10
- ED50 ([5]; Table 11, species not given): 857 mg/kg
- hypnotic activity compared with Compounds 3 or 4 ([5]; in vivo): lower hypnotic activity
- Percentage of animals falling within 2 minutes ([6]; 3 mg/kg oral, 30 minutes after administration): 0%
- Percentage of animals falling within 2 minutes ([6]; 3 mg/kg oral, 60 minutes after administration): 0%
- Percentage of animals falling within 2 minutes ([6]; 6 mg/kg oral, 30 minutes after administration): 50%
- Percentage of animals falling within 2 minutes ([6]; 6 mg/kg oral, 60 minutes after administration): 17%
- Percentage of animals falling within 2 minutes ([6]; 12 mg/kg oral, 30 minutes after administration): 100%
- Percentage of animals falling within 2 minutes ([6]; 12 mg/kg oral, 60 minutes after administration): 50%
- Percentage of myorelaxant animals ([7]; 1.5 mg/kg oral, after 30 minutes): 20%
- Percentage of myorelaxant animals ([7]; 1.5 mg/kg oral, after 180 minutes): 15%
- Percentage of myorelaxant animals ([7]; 3.0 mg/kg oral, after 30 minutes): 60%
- Percentage of myorelaxant animals ([7]; 3.0 mg/kg oral, after 180 minutes): 55%
- Percentage of myorelaxant animals ([7]; 6.0 mg/kg oral, after 30 minutes): 80%
- Percentage of myorelaxant animals ([7]; 6.0 mg/kg oral, after 180 minutes): 70%
- increase in CER ([8]; 1.25 mg/kg os): ~350%
- increase in CER ([8]; 5 mg/kg os): about 920%
- activity in antagonizing tone-induced disruption compared with Compound 4 ([8]; in vivo): about twice as active as Compound 4
- LD50 [9]: 1300 mg/kg

SMILES: C#CCN1C(=O)CN=C(c2ccccc2Cl)c2cc(Cl)ccc21 [Compound 4, 7-chloro-2,3-dihydro-5-(2-chlorophenyl)-1-propargyl-1,H-1,4-benzodiazepine-2-one]
- ED50 [3]: 20.1 mg/kg
- increase in CER ([8]; 1.25 mg/kg os): ~630%
- increase in CER ([8]; 5 mg/kg os): ~1600%

— patent US4313943A, “7-Chloro-2,3-dihydro-5-phenyl-1-propargyl-1H-1,4-benzodiazepine-2-one, and a pharmaceutical composition thereof” (priority 1972, dated 1982)
